This is an account of results in patent US8168651B2, “Protein kinase modulators” (Cylene Pharmaceuticals, Inc., priority 2008, dated 2012).

For orientation: Cmax means the peak of the concentration-time curve. A word on the Tmax: it is the time from dosing to the highest level. The half-life is how long it takes for the measured level to halve. Higher therefore signals slow decline.

Data set [1] can be described thus: Body weight of tumor-bearing xenograft animals. The note with it: BC-PC3 xenograft; IV or IP dosing, days 1-18. The data set is classed as in vivo, mice.
The test system of the next data set is HUVEC cells. As to the kind of experiment: Human endothelial tube formation assay (BD BioCoat Angiogenesis System). The note with it: 18 hrs. Type of data set: cell-based.
Data set [2] can be described thus: Pharmacokinetics after IV and PO dose in SD rats. Type of data set: in vivo. The note with it: for Cmax / Tmax / Vd / half-life: rat, plasma. As to the method:
(§1) The pharmacokinetics properties of drugs were also investigated in SD rats and beagle dogs following an intravenous (IV) bolus and oral (PO) doses of drug using similar methods. Blood samples were collected at predetermined times and the plasma separated.
(§2) Drug levels were quantified by the LC/MS/MS method described below. Noncompartmental pharmacokinetic analysis was applied for intravenous administration. […] The terminal t1/2 and C0 were calculated using the last three and the first three data points, respectively
(§3) Bioanalysis was performed using a Quattro Micro LC/MS/MS instrument in the MRM detection mode, with an internal standard (IS). Briefly, 15 µL plasma samples were prepared for analysis using protein precipitation with 120 μL of acetonitrile. The supernatants were transferred into a 96 well plate and subjected to LC-MS/MS analysis using a Phenomenex Polar-RP HPLC column. The mobile phases were 10 mM NH4HCO3 in water (Solution-A) and 10 mM NH4HCO3 in methanol (Solution-B). […] Quantitation of the analytes was performed in the batch mode with two bracketing calibration curves according to the bioanalytical sample list.

For data set [3], the system named is BX-PC3 (human pancreatic cancer cells) xenograft. As to the kind of experiment: Tumor suppression in BX-PC3 xenograft mice. The data set is classed as in vivo.
The next data set concerns MiaPaca xenografts. As to the kind of experiment: Tumor suppression in MiaPaca xenograft mice. Type of data set: in vivo, NCr nu/nu mice. As to the method:
(§4) Animals were handled under laminar-flow hoods.
Tumor volume measurements (FIG. 3A) and body weight (FIG. 3B) were recorded on days 3, 6, 8, 10, 13 and 15.
(§5) Gemzar™ administered at a dose of 80 mg/kg IP Q3D was used as a positive control.

The nature of data set [4]: Pharmacokinetics after IV and PO dose in beagle dogs. The data set is classed as in vivo. The note with it: for Cmax / Vd / Tmax / half-life: plasma. As for the experimental part: as §1, §2, §3
The nature of data set [5]: Tumor pharmacokinetic studies, IV QDx6. Type of data set: in vivo, mice. As to conditions: 30 mg/kg IV QD×6.
Another data set relates to MDA-MB-231 xenografts. As to the kind of experiment: Tumor suppression in MDA-MB-231 xenograft animals. Type of data set: in vivo, mice. The note with it: IV 30 and 60 mg/kg and oral 200 mg/kg.
From the text: as §4

The next data set deals with PC-3 xenografts. As to the kind of experiment: Tumor suppression in PC-3 xenograft animals. Type of data set: in vivo, NCr nu/nu mice. The note with it: oral 150 mg/kg. As to the method:
as §4, §5

The next data set relates to MCF-7 xenografts. As to the kind of experiment: Tumor suppression in MCF-7 xenograft animals. Type of data set: in vivo, NCr nu/nu mice. The note with it: oral 100 mg/kg. As for the experimental part: as §4, §5
A short description of data set [6]: Pharmacokinetics after IV and PO dose in ICR mice. The data set is classed as in vivo. The note with it: for half-life: mouse, plasma. As for the experimental part:
[…] Blood samples were collected at predetermined times and the plasma separated. Plasma was separated from the blood samples collected at 5, 15 and 30 minutes and 1, 2, 4, 8 and 24 hours post-dose.
Drug levels were quantified by the LC/MS/MS method described below. Noncompartmental pharmacokinetic analysis was applied for intravenous administration. A linear trapezoidal rule was used to compute AUC(0-24). The terminal t1/2 and C0 were calculated using the last three and the first three data points, respectively
as §3

Data set [7] deals with A549 (human lung cancer cells) xenograft. As to the kind of experiment: Tumor suppression in A549 xenograft mice. The note with it: oral administration. Type of data set: in vivo.
From the text: as §4
The compound was delivered by oral administration for such determinations.

Data set [8] can be described thus: Distribution of compound in plasma and tumors of animals. The data set is classed as in vivo, mice. As for the experimental part: The distribution of compound A1 in the plasma and tumors of animals was assessed.
Another data set deals with caspase-3 cell staining. As to the kind of experiment: Caspase-3 staining as biomarker in treated tumors. The data set is classed as in vivo, mice. The note with it: 60 mg/kg IV. As for the experimental part: Caspase staining also was assessed as a biomarker for compound A1 treatment of tumors.
In the next data set the target is Flt3 (Homo sapiens (Human), UniProt P36888). The note with it: cited from earlier work.
Setting [9] is: Sprague-Dawley, PO 8.06 mg/kg, SD-Rats.
The mark [10] stands for this setting: Sprague-Dawley, IV 2.50 mg/kg, SD rats.
Setting [11] is: dog, 0.8 mg/kg, IV 0.80 mg/kg, Beagle dogs.
Setting [12] is: dog, PO 3.80 mg/kg, Beagle dogs.

Sequence of Flt3 (P36888 27-993): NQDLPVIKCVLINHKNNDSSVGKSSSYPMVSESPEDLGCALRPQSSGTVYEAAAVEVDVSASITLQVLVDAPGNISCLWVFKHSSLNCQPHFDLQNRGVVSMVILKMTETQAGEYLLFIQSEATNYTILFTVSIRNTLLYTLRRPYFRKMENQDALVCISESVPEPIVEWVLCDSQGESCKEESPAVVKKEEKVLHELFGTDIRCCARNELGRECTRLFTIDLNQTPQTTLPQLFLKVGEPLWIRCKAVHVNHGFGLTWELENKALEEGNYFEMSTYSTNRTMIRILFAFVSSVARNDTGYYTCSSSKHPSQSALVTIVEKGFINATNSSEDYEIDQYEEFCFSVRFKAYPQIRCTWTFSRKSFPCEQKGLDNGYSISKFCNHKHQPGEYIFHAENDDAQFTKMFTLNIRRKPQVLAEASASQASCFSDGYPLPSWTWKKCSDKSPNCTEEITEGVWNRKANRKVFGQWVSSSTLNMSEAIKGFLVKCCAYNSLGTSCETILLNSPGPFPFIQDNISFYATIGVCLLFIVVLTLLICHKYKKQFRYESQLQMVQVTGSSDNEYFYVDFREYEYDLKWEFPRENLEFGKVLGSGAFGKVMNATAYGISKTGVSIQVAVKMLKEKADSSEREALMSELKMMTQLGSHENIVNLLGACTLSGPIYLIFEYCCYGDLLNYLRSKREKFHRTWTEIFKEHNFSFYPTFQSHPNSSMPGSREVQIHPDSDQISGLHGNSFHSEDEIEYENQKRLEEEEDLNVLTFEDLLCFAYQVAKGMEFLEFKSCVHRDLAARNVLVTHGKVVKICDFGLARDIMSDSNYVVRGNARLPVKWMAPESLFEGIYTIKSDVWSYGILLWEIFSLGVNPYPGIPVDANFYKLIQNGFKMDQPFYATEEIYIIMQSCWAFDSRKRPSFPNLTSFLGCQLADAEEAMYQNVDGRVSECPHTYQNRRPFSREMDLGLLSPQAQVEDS

For the compound `C#Cc1cccc(Nc2nc3cc(C(=O)O)ccc3c3cncnc23)c1` [Compound A2], the “body weight (FIG. 4B)” value in data set [1] is “not significantly altering body weight”. Moreover, the “concentration range inhibiting tube formation” value with HUVEC cells is 1 to 5 µM. Also, in [2] (IV 1.56 mg/kg, SD Rats), the “AUC(0-12 h)” value amounted to 39194 ng · h · mI^−1, the “AUC(0-Inf)” value was determined as 36659 ng · h · mI^−1, the CLs came out at 1.7 mL/min/kg and the Cp0-exp was 47935 ng/mL. In [2] (IV 1.56 mg/kg, SD Rats), this compound gave a Kel of 0.1215 h⁻¹, a tl/2 of 5.7 h and a Vd of 0.6 L/kg. Moreover, in [2] (PO 8.06 mg/kg, SD-Rats), the “AUC(0-12 h)” value is recorded as 73945 ng · h · mI^−1, the “AUC(0-Inf)” value is 80286 ng · h · mI^−1, the “F(0-8 h)” value is 31.2% and the “F(0-12 h)” value came to 37.7%. In addition, in data set [2] (PO 8.06 mg/kg, SD-Rats), the “F(0-Inf)” value amounted to 43.8%, the Kel was 0.1077 h⁻¹ and the tl/2 turned out to be 6.4 h. Also, in data set [2] (Sprague-Dawley, IV 1.56 mg/kg, SD Rats), the Cmax was 34300 ng/mL. In data set [2] (setting [9]), the maximum concentration (Cmax) came out at 6670 ng/mL and the Tmax came out at 2 h. Also, in [3] (BC-PC3 xenograft, 60 mg/kg QD IV, 50 mg/kg BID IV or 100 mg/kg BID IP), the “tumor progression (FIG. 4A)” value is on record as “significantly inhibited tumor progression”. In addition, the tumor progression result in the data set with MiaPaca xenografts (IV 50 and 60 mg/kg and IP 100 mg/kg) was “significantly inhibited tumor progression”. The tumor progression entry in the data set with MiaPaca xenografts (oral 100 mg/kg QD×8 and 200 mg/kg QD×6) is reported as “significantly inhibited tumor progression”. In [4] (IV 2.00 mg/kg, Dog), the “AUC(0-12 h)” value is given as 1414 ng · h · mI^−1, the “AUC(0-Inf)” value was found to be 1437 ng · h · mI^−1, the CLs stood at 23.3 mL/min/kg and the Cp0-exp amounted to 3847 ng/mL. Further, in data set [4] (IV 2.00 mg/kg, Dog), the Kel turned out to be 0.1360 h⁻¹ and the tl/2 is 5.1 h. For the same compound, in [4] (beagle, IV 2.00 mg/kg, Dog), the highest level (Cmax) was 3070 ng/mL and the Vd is 10.2 L/kg. Also, in data set [4] (beagle, PO 7.50 mg/kg, Dog), the concentration peaked (Cmax) at 1210 ng/mL and the Tmax was 1 h. Also, the “half life change on repeated dosing” value in [5] is reported as “about doubles”. The tumor progression result with MDA-MB-231 xenografts was “significantly inhibited tumor progression”.

In the case of `O=C(O)c1ccc2c(c1)nc(Nc1cccc(Cl)c1)c1ccncc12` [Compound A1], the tumor growth entry in the data set on PC-3 xenografts is listed as “significantly inhibited tumor growth”; in the data set on MCF-7 xenografts, “significantly inhibited tumor growth”; in [7], “significantly inhibited tumor growth”; in data set [3] (BX-PC3 xenograft mice, oral administration), “significantly inhibited tumor growth”. The CLs in data set [6] (IV 5 mg/kg) is 25 mL/min/kg; in data set [4] (IV 0.80 mg/kg, Beagle dogs) it was 38.3 mL/min/kg. The Cp0-exp in data set [6] (IV 5 mg/kg) is 13201 ng/mL; in data set [4] (IV 0.80 mg/kg, Beagle dogs), 1406 ng/mL. The Kel in data set [6] (IV 5 mg/kg) worked out at 0.1586 h⁻¹; in [6] (PO 25 mg/kg) it was 0.1076 h⁻¹; in data set [4] (IV 0.80 mg/kg, Beagle dogs), 0.5546 h⁻¹. In addition, the “F(0-8 h)” value in [6] (PO 25 mg/kg) was determined as 10.9%. Besides, the “F(0-inf h)” value in data set [6] (PO 25 mg/kg) amounted to 18.7%. The half-life in data set [6] (IV 5 mg/kg) is 4.4 h; in [6] (PO 25 mg/kg) it was 6.4 h; in data set [2] (Sprague-Dawley, po, […]), 4.5 h; in [2] (setting [10]), 9.8 h; in data set [4] (setting [11]), 1.2 h; in [4] (setting [12]), 1.2 h. For the same compound, the “compound identified in plasma” value is “about 6.8 micromolar” in data set [8] (30 mg/kg IV), ~2.2 µM in data set [8] (60 mg/kg IV) and ~9.5 µM in data set [8] (200 mg/kg orally). For the same compound, the figures for the “compound identified in tumors” value in [8] (30 mg/kg IV), in [8] (60 mg/kg IV) and in [8] (200 mg/kg orally) were “about 42.9 micromolar”, ~7.0 µM and ~6.4 µM, respectively. Further, the Tmax in data set [2] (Sprague-Dawley, po, […]) stood at 1 h; in data set [4] (setting [12]), 0.5 h. Also, the maximum concentration (Cmax) in [2] (setting [10]) was found to be 21300 ng/mL; in [4] (setting [11]) it was 1040 ng/mL; in [4] (setting [12]), 495 ng/mL. The results for the Vd in data set [2] (setting [10]) and in data set [4] (setting [11]) were 2.5 L/kg and 4.1 L/kg, respectively. In addition, the “caspase-3 cell staining levels versus untreated control cells” value in the data set on caspase-3 cell staining is listed as “four-fold greater”. Further, the “AUC(0-12 h)” value in [4] (IV 0.80 mg/kg, Beagle dogs) stood at 349 ng · h · mI^−1. The “AUC(0-Inf)” value came to 352 ng · h · mI^−1 in [4] (IV 0.80 mg/kg, Beagle dogs) and 633 ng · h · mI^−1 in data set [4] (IV MC 0.80 mg/kg, Beagle dogs).

Regarding `C[C@]12O[C@H](C[C@]1(O)CO)n1c3ccccc3c3c4c(c5c6ccccc6n2c5c31)CNC4=O` [CEP-701], the “inhibition of Flt3” value at Flt3 was “potent inhibitor”.
